Laboratory results: US20190328869A1, “IMMUNOTHERAPEUTIC PRODUCT AND MDSC MODULATOR COMBINATION THERAPY” (Transgene SA, priority 2016, published 2019)

Experiments:
[1] = system: anti-HBc antibodies; assay: Anti-HBc antibody level by ELISA in HBV-persistent mice; assay type: in vivo, C57BL/6J mice; details: serum 1/2000, up to day 76; sildenafil 20 mg/kg/day D31-59 or D48-76
From the text: Graphs A-F illustrate anti-HBc antibody levels determined respectively in individual mice of the six study groups 1-6. Individual mice are shown as thin line and the group mean titers as bold dotted black line. In all graphs the Y-axis indicates the anti-HBc levels (OD450) and the X-axis the time (number of days post-AAV2/8-HBV injection). Time points of immunization (D36, D43, D50) are shown by a dashed line and the period of sildenafil treatment is shown by a horizontal bar on the top of the graph.
The HBV persistent mice used in the study were described by Dion et al. (2013, J Virol, 87(10):5554-63). The model is based on the introduction in mice of an adeno-associated virus (AAV) encoding for a full length HBV genome (AAV2/8-HBV) and causing the production of infectious HBV particles in mouse livers. This allows the analysis of HBV-specific viral parameters (HBsAg, HBeAg, HBcAg and viremia) as well as immunological read-outs (ICS, ELISpot or humoral immune responses). […]
96-well Immulon 4HBX plates (Thermo Scientific) were coated overnight at +4° C. with 100 μL of recombinant HBc (Prospec) diluted to 1 μg/mL in BupH Carbonate-Bicarbonate buffer (Thermo Scientific Cat#28382). […] Ten minutes later, reaction was stopped by adding of 100 μL per well of 1N HCl and optic density was measured at 450 nm with Tecan Infinity 200 reader. […]

[2] = system: Adenovirus-specific T cells producing IFNγ; assay: IFNγ-ELISpot, vector-specific T cell response (Ad-specific peptide FAL) in HBV-persistent mice; assay type: in vivo, C57BL/6J mice; details: splenocytes, day 76 post AAV2/8-HBV; sildenafil 20 mg/kg/day D31-59 or D48-76; AdTG18201 2×10^9 vp sc D36, 43, 50
Description: The capacity of splenocytes to produce IFNγ after different in vitro stimulations was measured by an IFNγ-ELISpot assay at day 76 post AAV2/8-HBV injection. Vector-specific T cell responses were assessed using the Ad-specific peptide FAL. Results are shown as the number of spots per 10^6 splenocytes. Each dot represents an individual mouse and thick line represents the mean value for each group (+/−SEM). The horizontal gray line represents the technical cutoff value (50 spots/10^6 cells) above which values are considered as positive T cell responses and which was defined as described in the Material and Methods. For groups with a positive T cell response, incidence of mice per group is indicated on the graph.
The HBV persistent mice used in the study were described by Dion et al. (2013, J Virol, 87(10):5554-63). […] This allows the analysis of HBV-specific viral parameters (HBsAg, HBeAg, HBcAg and viremia) as well as immunological read-outs (ICS, ELISpot or humoral immune responses). […]
IFNg-producing T cells were quantified by cytokine-specific ELISpot (enzyme linked immunospot) assay as previously described (Himoudi et al., 2002, J. Virol. 76: 12735). The number of spots (corresponding to the IFNg-producing T cells) in negative control wells were subtracted from the number of spots detected in experimental wells containing HBV peptides. […]

CCCc1nn(C)c2c(=O)nc(-c3cc(S(=O)(=O)N4CCN(C)CC4)ccc3OCC)[nH]c12 [sildenafil, 1-[[3-(4,7-dihydro-1-methyl-7-oxo-3-propyl-1H-pyrazolo[4,3-d]pyrimidin-5-yl)-4-ethoxyphenyl]sulfonyl]-4-methylpiperazine]
anti-HBc antibodies induction (OD450) [1]: no anti-HBc antibodies were induced | IFNg-response to the Ad-specific peptide FAL [2]: negative
